Test results taken from paper PMC10224441, “Structural Manipulations of Marine Natural Products Inspire a New Library of 3-Amino-1,2,4-Triazine PDK Inhibitors Endowed with Antitumor Activity in Pancreatic Ductal Adenocarcinoma” (Marine Drugs, 2023).
Counter-ions that a name gives are not always drawn. Like-named read-outs stand apart in the source and are kept apart here.

Tests used:
recombinant human PDK1 = target: T1, recombinant human PDK1 (Homo sapiens, UniProt Q15118); assay: PDK1 ADPGlo Kinase Assay; assay type: biochemical; details: isolated PDK1 isoform; four-parameter logistic model; mean of 3 independent experiments; read-out: IC50 (µM) ± S.D. PDK1
T1 construct: purchased Abcam
Description: The ability of the tested compounds to hamper the activity of PDK1-4 isoforms was firstly evaluated by means of a chemioluminescent assay, the ADPGlo™ Kinase Assay kit (Promega Corporation, Madison, WI, USA).
The in vitro inhibitory activity of tested compounds on recombinant human PDK1-4 isoforms (Abcam, Cambridge, MA, USA) was evaluated by using the ADPGlo™ Kinase Assay kit from Promega (Promega Corporation, Madison, WI, USA) following the instructions of the manufacturer, as previously described.

[1] = system: BxPC-3 cells (KRAS-wild-type PDAC); assay: 2D cytotoxicity, MTT assay, BxPC-3; assay type: cell-based; details: Homo sapiens, read-out: IC50 (µM) ± S.D. BxPC-3 (2D)
Description: (§1) All newly developed 1,2,4-amino-triazine compounds were screened for their cytotoxic activity against two human PDAC cell lines, namely, a KRAS-wild-type PDAC cell line (BxPC-3 cells) and a KRAS-mutant PDAC cell line (PSN-1 cells). […] The cytotoxicity parameters, expressed in terms of IC50 and obtained after 72 h of drug exposure by MTT assay, are reported in Table 3.
(§2) All tested compounds were dissolved in DMSO just before the experiment, and a calculated amount of drug solution was added to the cell growth medium to a final solvent concentration of 0.5%, which had no detectable effects on cell viability.
(§3) Human pancreatic PSN-1 and BxPC-3 carcinoma cell lines were obtained by American Type Culture Collection (ATCC, Rockville, MD, USA). Cell lines were maintained in the logarithmic phase at 37 °C in a 5% carbon dioxide atmosphere using RPMI-1640 medium (EuroClone) containing 10% fetal calf serum (EuroClone, Milan, Italy), antibiotics (50 units/mL penicillin and 50 μg/mL streptomycin) and 2 mM l-glutamine.
(§4) The growth inhibitory effect on tumor cells was evaluated by means of MTT assay. Briefly, 5 × 10^3 cells/well were seeded in 96-well microplates in a growth medium (100 μL). After 24 h, the medium was removed and replaced with a fresh one containing the compound to be studied at the appropriate concentration. Triplicate cultures were established for each treatment. After 72 h, each well was treated with 10 μL of a 5 mg/mL MTT saline solution, and following 5 h of incubation, 100 μL of a sodium dodecyl sulfate (SDS) solution in HCl 0.01 M was added. After overnight incubation, cell growth inhibition was detected by measuring the absorbance of each well at 570 nm using a Bio-Rad 680 microplate reader. The mean absorbance for each drug dose was expressed as a percentage of the control untreated well absorbance and plotted vs. drug concentration. IC50 values, the drug concentrations that reduce the mean absorbance at 570 nm to 50% of those in the untreated control wells, were calculated by the four-parameter logistic (4-PL) model. The evaluation was based on means from at least four independent experiments.

[2] = system: PSN-1 cells (KRAS-mutant PDAC); assay: 2D cytotoxicity, MTT assay, PSN-1; assay type: cell-based; details: Homo sapiens, read-out: IC50 (µM) ± S.D. PSN-1 (2D)
Description: as §1, §2, §3, §4

BxPC-3 spheroids = assay: 3D spheroid cytotoxicity, acid phosphatase (APH) assay, BxPC-3; assay type: cell-based; details: Homo sapiens, 72 h, acid phosphatase (APH) test, read-out: IC50 (µM) ± S.D. BxPC-3 (3D spheroids)
PSN-1 spheroids = assay: 3D spheroid cytotoxicity, acid phosphatase (APH) assay, PSN-1; assay type: cell-based; details: Homo sapiens, PSN1, 72 h, acid phosphatase (APH) test, read-out: IC50 (µM) ± S.D. PSN-1 (3D spheroids)
Description: Prompted by these encouraging results, we also screened the newly developed 1,2,4-triazine compounds against 3D spheroids of PDAC KRAS wild-type and mutant cells, to further estimate their anticancer potential in a more predictive environment. […] The PDAC cancer spheroids were treated with tested compounds for 72 h, and cell viability was assessed by means of the acid phosphatase (APH) assay (Table 3). The efficacy of gemcitabine as well as of DCA and DAP was assessed under the same experimental conditions.
Spheroid cultures were obtained by seeding 2.5 × 10^3 PSN-1 cancer cells/well in a round-bottom non-treated tissue culture 96-well plate (Greiner Bio-one, Kremsmünster, Austria) in phenol red-free RPMI-1640 medium (Sigma Chemical Co, St. Louis, MO, USA) containing 10% fetal calf serum and supplemented with 20% methylcellulose stock solution.
An APH-modified assay was used for determining cell viability in 3D spheroids, as previously described. Briefly, the pre-seeded spheroids were treated with fresh medium containing the compound to be studied at the appropriate concentration (range 2.5–200 μM). Triplicate cultures were established for each treatment. After 72 h, each well was treated with 100 μL of the assay buffer (0.1 M sodium acetate, 0.1% Triton-X-100, supplemented with ImmunoPure p-nitrophenyl phosphate; Sigma Chemical Co.) and, following 3 h of incubation, 10 μL of 1 M NaOH solution were added. The inhibition of the cell growth induced by the tested compounds was detected by measuring the absorbance of each well at 405 nm, using a Bio-Rad 680 microplate reader. The mean absorbance for each drug dose was expressed as a percentage of the control untreated well absorbance (T/C) and plotted vs. drug concentration. IC50 values, the drug concentrations that reduce the mean absorbance at 405 nm 50% of those in the untreated control wells, were calculated by the four-parameter logistic (4-PL) model. The evaluation was based on means from at least four independent experiments.

[3] = BXPC-3, 72 h exposure, MTT test, 2D culture
[4] = PSN1, 72 h exposure, MTT test, 2D culture

T1 sequence (Q15118 29-436): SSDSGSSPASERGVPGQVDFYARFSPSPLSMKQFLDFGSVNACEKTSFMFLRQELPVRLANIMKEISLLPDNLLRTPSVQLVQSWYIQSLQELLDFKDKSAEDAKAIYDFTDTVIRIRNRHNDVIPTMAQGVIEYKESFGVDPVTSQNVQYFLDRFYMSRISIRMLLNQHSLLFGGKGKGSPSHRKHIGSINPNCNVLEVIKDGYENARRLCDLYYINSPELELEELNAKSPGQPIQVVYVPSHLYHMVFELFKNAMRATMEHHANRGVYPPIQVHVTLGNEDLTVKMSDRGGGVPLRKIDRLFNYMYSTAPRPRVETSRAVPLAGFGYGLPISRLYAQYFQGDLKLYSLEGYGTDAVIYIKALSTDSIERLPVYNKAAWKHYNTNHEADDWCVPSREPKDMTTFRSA

| Structure (SMILES) | IC50 (recombinant human PDK1) [µM] | IC50 [1, 3] [µM] | IC50 [2, 4] [µM] | IC50 (BxPC-3 spheroids) [µM] | IC50 (PSN-1 spheroids) [µM] | melting point [°C] | IC50 ([1]; BXPC-3, 72 h) [µM] | IC50 ([2]; PSN1, 72 h) [µM] |
| --- | --- | --- | --- | --- | --- | --- | --- | --- |
| Cn1cc(-c2nnc(N)nc2-c2cn(C)c3ncccc23)c2cc(Br)ccc21 [4c, 6-(5-Bromo-1-methyl-1H-indol-3-yl)-5-(1-methyl-1H-pyrrolo[2,3-b]pyridin-3-yl)-1,2,4-triazin-3-amine] | 0.26 ± 0.07 | 9.5 ± 1.7 | 7.8 ± 1.5 | 76.8 ± 5.1 | 55.8 ± 3.5 | 176.3 |  |  |
| Cn1cc(-c2nc(N)nnc2-c2cn(C)c3ncccc23)c2cc(Br)ccc21 [5c, 5-(5-bromo-1-methyl-1H-indol-3-yl)-6-(1-methyl-1H-pyrrolo[2,3-b]pyridin-3-yl)-1,2,4-triazin-3-amine] | 0.27 ± 0.08 | 13.7 ± 2.9 | 9.2 ± 1.9 | 156 ± 11.7 | 78.4 ± 5.8 | 304.5 |  |  |
| Cn1cc(-c2nnc(N)nc2-c2cn(C)c3ncccc23)c2cc(F)ccc21 [4g, 6-(5-Fluoro-1-methyl-1H-indol-3-yl)-5-(1-methyl-1H-pyrrolo[2,3-b]pyridin-3-yl)-1,2,4-triazin-3-amine] | 0.19 ± 0.04 | 6.5 ± 1.1 | 4.5 ± 1.3 | 71.5 ± 5.2 | 65.5 ± 6.8 | 267.4 |  |  |
| COc1ccc2c(c1)c(-c1nnc(N)nc1-c1cn(C)c3ncccc13)cn2C [4i, 6-(5-methoxy-1-methyl-1H-indol-3-yl)-5-(1-methyl-1H-pyrrolo[2,3-b]pyridin-3-yl)-1,2,4-triazin-3-amine] | 0.33 ± 0.1 | 31.2 ± 5.5 | 26.5 ± 4 | 189 ± 10.9 | 140 ± 7.5 | 217 |  |  |
| Cn1cc(-c2nc(N)nnc2-c2cn(C)c3ncccc23)c2ccccc21 [5a, 5-(1-Methyl-1H-indol-3-yl)-6-(1-methyl-1H-pyrrolo[2,3-b]pyridin-3-yl)-1,2,4-triazin-3-amine] | 0.32 ± 0.1 | 27.2 ± 3.7 | 22.2 ± 2.7 | 170 ± 9.4 | 78.8 ± 8.5 | 235.5 |  |  |
| COc1ccc2c(c1)c(-c1nnc(N)nc1-c1cn(C)c3ncc(Br)cc13)cn2C [4j, 5-(5-Bromo-1-methyl-1H-pyrrolo[2,3-b]pyridin-3-yl)-6-(5-methoxy-1-methyl-1H-indol-3-yl)-1,2,4-triazin-3-amine] | 0.18 ± 0.06 | 30.5 ± 3.4 | 27.8 ± 3.8 | 160 ± 10.5 | 103 ± 8.7 | 197.6 |  |  |
| Cn1cc(-c2nc(N)nnc2-c2cn(C)c3ncccc23)c2cc(Cl)ccc21 [5e, 5-(5-Chloro-1-methyl-1H-indol-3-yl)-6-(1-methyl-1H-pyrrolo[2,3-b]pyridin-3-yl)-1,2,4-triazin-3-amine] | 0.32 ± 0.1 | 16.5 ± 3.8 | 14.2 ± 3.1 | 200 ± 16.3 | 198 ± 12.4 | 310.3 |  |  |
| Cn1cc(-c2nc(N)nnc2-c2cn(C)c3ncccc23)c2cc(F)ccc21 [5g, 5-(5-Fluoro-1-methyl-1H-indol-3-yl)-6-(1-methyl-1H-pyrrolo[2,3-b]pyridin-3-yl)-1,2,4-triazin-3-amine] | 0.29 ± 0.1 | 19.8 ± 3.2 | 15.2 ± 4.6 | 79.7 ± 11.4 | 130 ± 11.8 | 281.4 |  |  |
| Cn1cc(-c2nnc(N)nc2-c2cn(C)c3ncc(Br)cc23)c2ccccc21 [4b, 5-(5-Bromo-1-methyl-1H-pyrrolo[2,3-b]pyridin-3-yl)-6-(1-methyl-1H-indol-3-yl)-1,2,4-triazin-3-amine] | 0.33 ± 0.05 | 23.5 ± 3.2 | 19.5 ± 2.9 | 224 ± 14.8 | 188 ± 13.8 | 260 |  |  |
| Cn1cc(-c2nc(N)nnc2-c2cn(C)c3ncc(Br)cc23)c2ccccc21 [5b, 6-(5-Bromo-1-methyl-1H-pyrrolo[2,3-b]pyridin-3-yl)-5-(1-methyl-1H-indol-3-yl)-1,2,4-triazin-3-ylamine] | 0.21 ± 0.07 | 9.4 ± 1.3 | 5.2 ± 0.9 | 68.5 ± 2.5 | 73.6 ± 6.8 |  |  |  |
| Cn1cc(-c2nnc(N)nc2-c2cn(C)c3ncccc23)c2ccccc21 [4a, 6-(1-Methyl-1H-indol-3-yl)-5-(1-methyl-1H-pyrrolo[2,3-b]pyridin-3-yl)-1,2,4-triazin-3-amine] | 0.3 ± 0.1 | 15.7 ± 2.2 | 11.3 ± 2 | 141.3 ± 0.1 | 97.5 ± 2.8 | 268.1 |  |  |
| O=C(O)C(Cl)Cl [DCA, Dichloroacetate, reference compound] |  |  |  |  | 29800 ± 357 |  | > 1000 | > 1000 |
| COc1ccc2c(c1)c(-c1nc(N)nnc1-c1cn(C)c3ncccc13)cn2C [5i, 5-(5-Methoxy-1-methyl-1H-indol-3-yl)-6-(1-methyl-1H-pyrrolo[2,3-b]pyridin-3-yl)-1,2,4-triazin-3-amine] | 0.31 ± 0.07 | 0.31 ± 0.07 | 14.9 ± 3.2 | 153 ± 10.3 | 112 ± 9.1 | 288.2 |  |  |
| Nc1ccn([C@@H]2O[C@H](CO)[C@@H](O)C2(F)F)c(=O)n1 [Gemcitabine, gemcitabine hydrochloride, reference compound] |  | 0.02 ± 0.003 | 0.1 ± 0.04 | 160 ± 5.6 | 103 ± 6.3 |  |  |  |
